Measured values as given in patent US10278957B2, “Opioid agonist peptides and uses thereof” (Protagonist Therapeutics, Inc., priority 2017, dated 2019).
Square brackets hold non-standard residues; d marks the D form. Peptide text beside a SMILES is read from it. Phe(3,4-(OMe)2) = COc1ccc(C[C@H](N)C(=O)O)cc1OC; Phe(3,4-Cl2) = N[C@@H](Cc1ccc(Cl)c(Cl)c1)C(=O)O; Phe(4-tBu) = CC(C)(C)c1ccc(C[C@H](N)C(=O)O)cc1; Bip = N[C@@H](Cc1ccc(-c2ccccc2)cc1)C(=O)O; Dip = N[C@H](C(=O)O)C(c1ccccc1)c1ccccc1; Phe(4-F) = N[C@@H](Cc1ccc(F)cc1)C(=O)O; Dmt = Cc1cc(O)cc(C)c1C[C@H](N)C(=O)O; dNMeF = CN[C@H](Cc1ccccc1)C(=O)O; hPhe = N[C@@H](CCc1ccccc1)C(=O)O; αMeF = C[C@](N)(Cc1ccccc1)C(=O)O; Tic = O=C(O)[C@@H]1Cc2ccccc2CN1; β3hF = N[C@H](CC(=O)O)Cc1ccccc1; N(octyl)Gly = CCCCCCCCNCC(=O)O; Nle = CCCC[C@H](N)C(=O)O; Sar = CNCC(=O)O

Biological target: T1, δ-opioid receptor (DOR) (Homo sapiens, UniProt P41143)
T1 construct: host or cells: cAMP Hunter CHO-K1 OPRD1 Gαi cell line
T1 sequence (P41143 whole entry): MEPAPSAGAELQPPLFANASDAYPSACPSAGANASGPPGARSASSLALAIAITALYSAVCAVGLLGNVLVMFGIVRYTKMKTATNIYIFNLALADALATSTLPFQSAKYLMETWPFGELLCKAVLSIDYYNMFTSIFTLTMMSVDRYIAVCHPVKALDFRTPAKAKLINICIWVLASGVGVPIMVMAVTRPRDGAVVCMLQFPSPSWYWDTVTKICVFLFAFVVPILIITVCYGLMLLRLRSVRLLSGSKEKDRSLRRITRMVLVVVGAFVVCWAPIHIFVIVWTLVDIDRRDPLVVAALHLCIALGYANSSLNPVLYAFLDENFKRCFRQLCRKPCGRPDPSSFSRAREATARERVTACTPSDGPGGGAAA
Test: DOR agonist cAMP assay (HitHunter cAMP, forskolin-stimulated)
Assay type: cell-based
Experimental: The HitHunter® cAMP chemiluminescent assay kit (DiscoveRx, Cat# 90-0075 SM25) was used to detect cAMP production in cAMP Hunter™ Gαi cell lines over expressing either Human-ORPM1 (Discoverx, Catalog# 95-0107C2) or Human-ORPD1 (DiscoveRx, Catalog# 95-0108C2). Opioid agonist binding to the Gαi receptors inhibits the intracellular cAMP accumulation induced by forskolin, which activates adenylate cyclase and increases intracellular levels of cAMP.
Cells were cultured in media consisting of Ham's F-12 Nutrient Mix (Life Technologies, Catalog#31765035), 10% FBS (Life Technologies, Catalog# 16140-071), 4 mM GlutaMAX (Life Technologies, Catalog#35050-061), […] (Life Technologies), 100 ug/ml of Penn-Strep (Life Technologies) and 0.5 mg/ml Geneticin (Life Technologies, Catalog# 10131-027). The cultures were maintained at 37° C. under 5% CO2.
In preparation for cAMP assay, the cells were seeded at a density of 300,000 cells/ml in 100 ul of media/well in 96-well microplate. Wells that were designated for cAMP standards were left empty.
Opioid agonist serial dilutions were prepared in separate dilution plate (11-point series of 3× (3-fold) dilution) in Cell Assay buffer, including 3× forskolin for Gαi target. For Hunter CHO-K1 OPRM1 or CHO-K1 OPRD1 Gαi Cell Lines, the final forskolin concentration was 20 uM.
15 ul of each 3× opioid agonist serial dilution was added in the presence of forskolin in duplicate to the designated wells. The final concentration of each dilution was at 3× of the final screening concentration. The assay plate was incubated for 30 min, at 37° C. under 5% CO2.
Cellular cAMP concentrations were measured using the HitHunter cAMP Assay kit following the manufacturer's protocol. HitHunter cAMP assay is a gain-of-signal competitive immunoassay based on Enzyme Fragment Complementation (EFC) technology. The kit uses β-galactosidase (β-gal) enzyme split into Enzyme Donor (ED) and Enzyme Acceptor (EA). The cellular cAMP and ED-labelled cAMP compete for anti-cAMP antibody. […] When cellular cAMP level is high, it competes for the anti-cAMP antibody, thereby releasing ED-cAMP to complement with EA to produce a luminescent signal. The amount of signal is directly proportional to the amount of cAMP in cells and can be quantified using cAMP standards. The assay plates were read using a PerkinElmer Envision instrument to detect the chemiluminescence signal in each well (luminescence reader at 0.1 to 1 second/well). Data analysis was performed using Graphpad Prism 7.EC50 was calculated by nonlinear regression, using the four-parameter hill equation.

| Compound | EC50 |
| --- | --- |
| Cc1cc(O)cc(C)c1C[C@H](N)C(=O)N(C)[C@@H](CCCNC(=N)N)C(=O)NCC(=O)N[C@H](CC(=O)N(C)CC(N)=O)Cc1ccccc1 [compound 91] | 50 to 200 nM |
| CCCC[C@@H](C(=O)O)N(C)C(=O)C[C@H](Cc1ccccc1C)NC(=O)CNC(=O)[C@@H](C)NC(=O)[C@@H](N)Cc1c(C)cc(C(N)=O)cc1C [compound 163] | 1 to 10 nM |
| COc1ccc(C[C@H](NC(=O)[C@H](Cc2ccccc2)NC(=O)[C@@H](CCCNC(=N)N)NC(=O)[C@@H](N)Cc2c(C)cc(O)cc2C)C(N)=O)cc1OC [compound 17] (H-[Dmt][dR]F[Phe(3,4-(OMe)2)]-NH2) | 1 to 10 nM |
| Cc1cc(O)cc(C)c1C[C@H](N)C(=O)N[C@H](C)C(=O)NCC(=O)N[C@H](CC(=O)N(CC(N)=O)CC1CCCCC1)Cc1ccccc1 [compound 119] | 1 to 10 nM |
| Cc1cc(O)cc(C)c1C[C@H](N)C(=O)N[C@H](CCCNC(=N)N)C(=O)N[C@H](C(=O)N(C)CC(N)=O)C(c1ccccc1)c1ccccc1 [compound 26] (H-[Dmt][dR][Dip][Sar]-NH2) | > 200 nM |
| Cc1cc(O)cc(C)c1C[C@H](N)C(=O)N[C@H](CCCNC(=N)N)C(=O)N[C@@H](Cc1ccccc1)C(=O)N(C)[C@H](Cc1ccccc1)C(N)=O [compound 14] (H-[Dmt][dR]F[dNMeF]-NH2) | 10 to 50 nM |
| Cc1cc(O)cc(C)c1C[C@H](N)C(=O)N[C@H](C)C(=O)NCC(=O)N[C@H](CC(=O)N(CC(N)=O)C1CCCCC1)Cc1ccccc1 [compound 123] | < 1 nM |
| Cc1cc(O)cc(C)c1C[C@H](N)C(=O)N[C@H](CCCNC(=N)N)C(=O)N1Cc2ccccc2C[C@H]1C(=O)N(C)CC(N)=O [compound 21] (H-[Dmt][dR][Tic][Sar]-NH2) | > 200 nM |
| Cc1cc(O)cc(C)c1C[C@H](N)C(=O)N[C@H](CCCNC(=N)N)C(=O)NCC(=O)N[C@@H](Cc1c[nH]c2ccccc12)C(N)=O [compound 34] (H-[Dmt][dR]GW-NH2) | 10 to 50 nM |
| Cc1cc(O)cc(C)c1C[C@H](N)C(=O)N[C@H](C)C(=O)NCC(=O)N[C@@H](Cc1ccc(F)cc1)C(=O)NCC(N)=O [compound 38] | < 1 nM |
| Cc1cc(O)cc(C)c1C[C@H](N)C(=O)N[C@H](CCCNC(=N)N)C(=O)N[C@@H](Cc1ccccc1)C(=O)N[C@@H](CCc1ccccc1)C(N)=O [compound 18] (H-[Dmt][dR]F[hPhe]-NH2) | 1 to 10 nM |
| CCCCCN(CC(N)=O)C(=O)C[C@H](Cc1ccccc1)NC(=O)CNC(=O)[C@@H](C)NC(=O)[C@@H](N)Cc1c(C)cc(O)cc1C [compound 124] | < 1 nM |
| Cc1cc(O)cc(C)c1C[C@H](N)C(=O)N[C@H](C)C(=O)NCC(=O)N[C@H](CC(=O)N(CCc1ccccc1)CC(N)=O)Cc1ccccc1 [compound 121] | < 1 nM |
| Cc1cc(O)cc(C)c1C[C@H](N)C(=O)N[C@H](CCCNC(=N)N)C(=O)N[C@@H](Cc1ccccc1)C(=O)N[C@@H](CC(C)C)C(N)=O [compound 29] (H-[Dmt][dR]FL-NH2) | 10 to 50 nM |
| Cc1cc(O)cc(C)c1C[C@H](N)C(=O)N[C@H](CCCNC(=N)N)C(=O)N[C@@H](Cc1ccccc1)C(=O)N[C@H](C(N)=O)C(C)C [compound 30] (H-[Dmt][dR]FV-NH2) | 1 to 10 nM |
| Cc1cc(O)cc(C)c1C[C@H](N)C(=O)N[C@H](C)C(=O)NCC(=O)N[C@@H](Cc1ccc(Cl)c(Cl)c1)C(=O)NCC(N)=O [compound 41] | < 1 nM |
| COc1ccc(C[C@H](NC(=O)[C@@H](CCCNC(=N)N)NC(=O)[C@@H](N)Cc2c(C)cc(O)cc2C)C(=O)N(C)CC(N)=O)cc1OC [compound 25] (H-[Dmt][dR][Phe(3,4-(OMe)2)][Sar]-NH2) | > 200 nM |
| Cc1cc(O)cc(C)c1C[C@H](N)C(=O)N[C@H](CCCNC(=N)N)C(=O)N[C@@H](Cc1ccccc1)C(=O)N[C@H](C(N)=O)C(c1ccccc1)c1ccccc1 [compound 36] (H-[Dmt][dR]F[Dip]-NH2) | 10 to 50 nM |
| CCCC[C@H](NC(=O)[C@H](Cc1c[nH]c2ccccc12)NC(=O)[C@@H](CCCNC(=N)N)NC(=O)[C@@H](N)Cc1c(C)cc(O)cc1C)C(N)=O [compound 31] (H-[Dmt][dR]W[Nle]-NH2) | 10 to 50 nM |
| Cc1cc(O)cc(C)c1C[C@H](N)C(=O)N[C@H](C)C(=O)NCC(=O)N1Cc2ccccc2C[C@H]1C(=O)N(C)CC(N)=O [compound 107] | 10 to 50 nM |

| Compound | EC50 |
| --- | --- |
| Cc1cc(O)cc(C)c1C[C@H](N)C(=O)N[C@H](C)C(=O)NCC(=O)N1Cc2ccccc2C[C@H]1C(=O)NCC(N)=O [compound 40] | 10 to 50 nM |
| Cc1cc(O)cc(C)c1C[C@H](N)C(=O)N[C@H](CCCNC(=N)N)C(=O)N[C@@H](Cc1ccccc1)C(=O)N[C@@](C)(Cc1ccccc1)C(N)=O [compound 15] (H-[Dmt][dR]F[αMeF]-NH2) | 1 to 10 nM |
| Cc1cc(O)cc(C)c1C[C@H](N)C(=O)N[C@H](C)C(=O)NCC(=O)N[C@@H](CCc1ccccc1)C(=O)N(C)CC(N)=O [compound 47] | 1 to 10 nM |
| CCCCCCCCN(CC(N)=O)C(=O)C[C@H](Cc1ccccc1)NC(=O)CNC(=O)[C@@H](C)NC(=O)[C@@H](N)Cc1c(C)cc(O)cc1C [compound 115] | 10 to 50 nM |
| Cc1cc(C(N)=O)cc(C)c1C[C@H](N)C(=O)N[C@H](CC(=O)O)C(=O)NCC(=O)N[C@H](CC(=O)N(C)CC(N)=O)Cc1ccccc1 [compound 77] | < 1 nM |
| CCCC[C@H](NC(=O)[C@H](Cc1ccccc1)NC(=O)[C@@H](CCCN=C(N)N)NC(=O)[C@@H](N)Cc1c(C)cc(O)cc1C)C(N)=O [compound 28] (H-[Dmt][dR]F[Nle]-NH2) | 10 to 50 nM |
| Cc1cc(O)cc(C)c1C[C@H](N)C(=O)N[C@H](CCCNC(=N)N)C(=O)N(C)CC(=O)N[C@@H](Cc1c[nH]c2ccccc12)C(N)=O [compound 35] (H-[Dmt][dR][Sar]W-NH2) | > 200 nM |
| Cc1cc(O)cc(C)c1C[C@H](N)C(=O)N[C@H](CCCNC(=N)N)C(=O)N[C@@H](Cc1ccc(C(C)(C)C)cc1)C(=O)N(C)CC(N)=O [compound 24] (H-[Dmt][dR][Phe(4-tBu)][Sar]-NH2) | > 200 nM |
| Cc1cc(C(N)=O)cc(C)c1C[C@H](N)C(=O)N(C)[C@@H](CCCNC(=N)N)C(=O)NCC(=O)N[C@H](CC(=O)N(C)CC(N)=O)Cc1ccccc1 [compound 78] | 50 to 200 nM |
| Cc1cc(O)cc(C)c1C[C@H](N)C(=O)N[C@H](CCCNC(=N)N)C(=O)N[C@@H](Cc1ccc(Cl)c(Cl)c1)C(=O)N(C)CC(N)=O [compound 22] (H-[Dmt][dR][Phe(3,4-Cl2)][Sar]-NH2) | 10 to 50 nM |
| Cc1cc(O)cc(C)c1C[C@H](N)C(=O)N[C@H](C)C(=O)NCC(=O)N[C@H](CC(=O)N(CCC(=O)O)CC(N)=O)Cc1ccccc1 [compound 120] | < 1 nM |
| Cc1cc(O)cc(C)c1C[C@H](N)C(=O)N[C@H](CCCNC(=N)N)C(=O)N[C@@H](Cc1ccc(-c2ccccc2)cc1)C(=O)N(C)CC(N)=O [compound 23] (H-[Dmt][dR][Bip][Sar]-NH2) | < 1 nM |
| Cc1cc(O)cc(C)c1C[C@H](N)C(=O)N[C@H](C)C(=O)NCC(=O)N[C@@H](Cc1ccc(C#N)cc1)C(=O)NCC(N)=O [compound 39] | < 1 nM |
| CC(=O)N[C@@H](Cc1c(C)cc(O)cc1C)C(=O)N[C@H](C)C(=O)NCC(=O)N[C@H](CC(=O)N(C)CC(N)=O)Cc1ccccc1 [compound 86] | 10 to 50 nM |
| Cc1cc(O)cc(C)c1C[C@H](N)C(=O)N[C@H](CCCNC(=N)N)C(=O)N[C@@H](Cc1ccccc1)C(=O)N[C@@H](Cc1ccc(F)cc1)C(N)=O [compound 16] (H-[Dmt][dR]F[Phe(4-F)]-NH2) | 10 to 50 nM |
| Cc1cc(O)cc(C)c1C[C@H](N)C(=O)N[C@@H](C)C(=O)NCC(=O)N[C@H](CC(=O)N(C)CC(=O)O)Cc1ccccc1 [compound 88] | 10 to 50 nM |
| CCCCCCCCN(CC(N)=O)C(=O)[C@H](Cc1ccccc1)NC(=O)[C@@H](CCCNC(=N)N)NC(=O)[C@@H](N)Cc1c(C)cc(O)cc1C [compound 27] (H-[Dmt][dR]F[N(octyl)Gly]-NH2) | 50 to 200 nM |
| Cc1cc(O)cc(C)c1C[C@H](N)C(=O)N[C@H](C)C(=O)N[C@H](C(=O)N[C@H](CC(=O)N(C)CC(N)=O)Cc1ccccc1)C(C)C [compound 69] (H-[Dmt][dA]V[β3hF][Sar]-NH2) | 50 to 200 nM |
| Cc1cc(O)cc(C)c1C[C@H](N)C(=O)N[C@H](CCCNC(=N)N)C(=O)NCC(=O)N[C@H](C(N)=O)C(c1ccccc1)c1ccccc1 [compound 33] (H-[Dmt][dR]G[Dip]-NH2) | > 200 nM |
| Cc1cc(O)cc(C)c1C[C@H](N)C(=O)N[C@H](C)C(=O)N(C)CC(=O)N[C@H](CC(=O)N(C)CC(N)=O)Cc1ccccc1 [compound 64] | 50 to 200 nM |
